Test results taken from article PMC10495264 (Nature Cell Biology, 2023).
“And” between values parts separate entries of the source, which are not always exact repeats. Identical values can stand only once. “Also recorded” adds a separate entry of the source.

Assays:
TORC1 = target: T1, TORC1 (Saccharomyces cerevisiae, UniProt P35169); assay: MST binding affinity assays with fluorescent TORC1 (GFP–Tor1)
T1 construct: made in house; host or cells: S. cerevisiae strain NIC005 ([RL170-2c] LEU2:GFP-TOR1)
T1 sequence (P35169 whole entry): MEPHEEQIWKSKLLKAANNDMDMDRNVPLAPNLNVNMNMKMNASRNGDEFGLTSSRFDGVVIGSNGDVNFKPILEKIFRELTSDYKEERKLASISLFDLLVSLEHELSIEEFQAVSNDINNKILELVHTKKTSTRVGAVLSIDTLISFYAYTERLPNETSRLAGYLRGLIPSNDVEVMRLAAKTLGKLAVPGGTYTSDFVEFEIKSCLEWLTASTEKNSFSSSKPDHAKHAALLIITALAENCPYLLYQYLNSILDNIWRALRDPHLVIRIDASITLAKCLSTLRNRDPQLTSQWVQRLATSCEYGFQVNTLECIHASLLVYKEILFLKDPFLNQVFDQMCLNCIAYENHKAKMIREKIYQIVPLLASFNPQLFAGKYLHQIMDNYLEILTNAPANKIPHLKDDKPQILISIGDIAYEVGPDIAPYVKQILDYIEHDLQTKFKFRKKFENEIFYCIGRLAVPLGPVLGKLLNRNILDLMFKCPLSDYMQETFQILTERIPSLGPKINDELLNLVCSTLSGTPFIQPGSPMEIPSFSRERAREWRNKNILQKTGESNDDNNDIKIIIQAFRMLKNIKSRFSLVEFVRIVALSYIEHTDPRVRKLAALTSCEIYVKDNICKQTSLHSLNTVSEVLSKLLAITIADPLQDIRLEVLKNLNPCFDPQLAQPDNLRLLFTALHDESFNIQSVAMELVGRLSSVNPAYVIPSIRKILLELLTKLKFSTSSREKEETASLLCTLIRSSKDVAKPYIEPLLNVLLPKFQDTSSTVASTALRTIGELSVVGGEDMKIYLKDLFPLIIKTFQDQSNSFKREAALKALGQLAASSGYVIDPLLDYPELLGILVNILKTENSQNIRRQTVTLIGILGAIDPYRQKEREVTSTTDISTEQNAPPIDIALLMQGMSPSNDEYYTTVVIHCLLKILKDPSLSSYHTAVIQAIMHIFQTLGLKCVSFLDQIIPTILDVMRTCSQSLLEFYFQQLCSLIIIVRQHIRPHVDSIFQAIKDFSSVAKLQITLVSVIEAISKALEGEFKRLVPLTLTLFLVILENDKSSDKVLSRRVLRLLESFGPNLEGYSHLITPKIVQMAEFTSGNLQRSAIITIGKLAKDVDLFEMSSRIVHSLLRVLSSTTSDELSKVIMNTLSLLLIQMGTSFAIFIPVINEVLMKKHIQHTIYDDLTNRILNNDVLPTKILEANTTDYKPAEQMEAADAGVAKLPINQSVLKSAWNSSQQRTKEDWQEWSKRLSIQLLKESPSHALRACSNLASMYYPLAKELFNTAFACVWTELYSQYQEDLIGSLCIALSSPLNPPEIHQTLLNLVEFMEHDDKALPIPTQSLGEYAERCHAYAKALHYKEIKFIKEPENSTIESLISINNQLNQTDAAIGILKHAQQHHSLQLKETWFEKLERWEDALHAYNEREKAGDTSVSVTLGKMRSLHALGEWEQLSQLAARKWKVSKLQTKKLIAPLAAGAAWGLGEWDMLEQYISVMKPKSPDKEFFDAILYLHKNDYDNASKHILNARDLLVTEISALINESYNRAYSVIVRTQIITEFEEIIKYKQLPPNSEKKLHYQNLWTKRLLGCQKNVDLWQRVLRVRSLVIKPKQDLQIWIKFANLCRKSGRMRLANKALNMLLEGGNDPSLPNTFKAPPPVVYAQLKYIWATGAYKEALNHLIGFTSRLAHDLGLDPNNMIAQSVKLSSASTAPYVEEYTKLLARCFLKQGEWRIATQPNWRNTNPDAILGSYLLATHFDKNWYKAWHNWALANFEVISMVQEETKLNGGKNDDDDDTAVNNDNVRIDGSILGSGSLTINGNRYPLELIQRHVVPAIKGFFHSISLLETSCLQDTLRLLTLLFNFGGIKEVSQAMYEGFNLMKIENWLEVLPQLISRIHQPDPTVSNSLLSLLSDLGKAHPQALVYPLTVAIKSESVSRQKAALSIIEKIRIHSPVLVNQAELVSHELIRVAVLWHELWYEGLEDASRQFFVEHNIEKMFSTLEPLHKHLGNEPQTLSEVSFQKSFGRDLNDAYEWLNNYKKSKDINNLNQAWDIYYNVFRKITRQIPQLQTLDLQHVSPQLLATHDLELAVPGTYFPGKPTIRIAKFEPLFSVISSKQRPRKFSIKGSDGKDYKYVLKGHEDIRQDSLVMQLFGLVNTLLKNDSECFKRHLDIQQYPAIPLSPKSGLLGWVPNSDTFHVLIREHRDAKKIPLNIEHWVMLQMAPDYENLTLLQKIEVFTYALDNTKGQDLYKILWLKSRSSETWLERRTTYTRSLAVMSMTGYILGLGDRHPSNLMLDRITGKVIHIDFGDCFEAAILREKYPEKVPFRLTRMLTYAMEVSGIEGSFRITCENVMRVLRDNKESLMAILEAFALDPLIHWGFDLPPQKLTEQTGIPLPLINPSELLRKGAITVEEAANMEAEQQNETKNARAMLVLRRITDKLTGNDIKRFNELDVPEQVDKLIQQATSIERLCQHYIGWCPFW
T1 sequence (Q08921 whole entry partner): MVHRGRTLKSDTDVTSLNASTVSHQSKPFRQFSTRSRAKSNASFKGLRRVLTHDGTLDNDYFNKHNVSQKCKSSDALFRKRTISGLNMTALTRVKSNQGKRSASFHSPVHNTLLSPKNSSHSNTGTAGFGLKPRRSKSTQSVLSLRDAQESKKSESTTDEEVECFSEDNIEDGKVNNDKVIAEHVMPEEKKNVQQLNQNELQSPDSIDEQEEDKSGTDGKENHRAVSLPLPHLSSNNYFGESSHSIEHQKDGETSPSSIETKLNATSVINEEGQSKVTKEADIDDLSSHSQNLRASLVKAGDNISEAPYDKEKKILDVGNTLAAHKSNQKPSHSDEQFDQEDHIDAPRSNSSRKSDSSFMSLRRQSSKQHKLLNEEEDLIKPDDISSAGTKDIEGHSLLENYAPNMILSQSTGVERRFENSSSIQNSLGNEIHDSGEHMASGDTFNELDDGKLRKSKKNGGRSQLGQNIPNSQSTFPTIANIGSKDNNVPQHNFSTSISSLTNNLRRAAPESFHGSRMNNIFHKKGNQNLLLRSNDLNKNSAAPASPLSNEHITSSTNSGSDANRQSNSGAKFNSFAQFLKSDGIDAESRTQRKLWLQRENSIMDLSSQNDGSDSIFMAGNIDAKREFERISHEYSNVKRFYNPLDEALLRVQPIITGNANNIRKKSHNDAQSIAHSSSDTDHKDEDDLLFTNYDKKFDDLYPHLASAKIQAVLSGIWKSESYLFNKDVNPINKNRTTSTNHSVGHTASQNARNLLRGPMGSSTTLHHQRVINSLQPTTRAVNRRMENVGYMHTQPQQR
T1 sequence (P38873 whole entry partner): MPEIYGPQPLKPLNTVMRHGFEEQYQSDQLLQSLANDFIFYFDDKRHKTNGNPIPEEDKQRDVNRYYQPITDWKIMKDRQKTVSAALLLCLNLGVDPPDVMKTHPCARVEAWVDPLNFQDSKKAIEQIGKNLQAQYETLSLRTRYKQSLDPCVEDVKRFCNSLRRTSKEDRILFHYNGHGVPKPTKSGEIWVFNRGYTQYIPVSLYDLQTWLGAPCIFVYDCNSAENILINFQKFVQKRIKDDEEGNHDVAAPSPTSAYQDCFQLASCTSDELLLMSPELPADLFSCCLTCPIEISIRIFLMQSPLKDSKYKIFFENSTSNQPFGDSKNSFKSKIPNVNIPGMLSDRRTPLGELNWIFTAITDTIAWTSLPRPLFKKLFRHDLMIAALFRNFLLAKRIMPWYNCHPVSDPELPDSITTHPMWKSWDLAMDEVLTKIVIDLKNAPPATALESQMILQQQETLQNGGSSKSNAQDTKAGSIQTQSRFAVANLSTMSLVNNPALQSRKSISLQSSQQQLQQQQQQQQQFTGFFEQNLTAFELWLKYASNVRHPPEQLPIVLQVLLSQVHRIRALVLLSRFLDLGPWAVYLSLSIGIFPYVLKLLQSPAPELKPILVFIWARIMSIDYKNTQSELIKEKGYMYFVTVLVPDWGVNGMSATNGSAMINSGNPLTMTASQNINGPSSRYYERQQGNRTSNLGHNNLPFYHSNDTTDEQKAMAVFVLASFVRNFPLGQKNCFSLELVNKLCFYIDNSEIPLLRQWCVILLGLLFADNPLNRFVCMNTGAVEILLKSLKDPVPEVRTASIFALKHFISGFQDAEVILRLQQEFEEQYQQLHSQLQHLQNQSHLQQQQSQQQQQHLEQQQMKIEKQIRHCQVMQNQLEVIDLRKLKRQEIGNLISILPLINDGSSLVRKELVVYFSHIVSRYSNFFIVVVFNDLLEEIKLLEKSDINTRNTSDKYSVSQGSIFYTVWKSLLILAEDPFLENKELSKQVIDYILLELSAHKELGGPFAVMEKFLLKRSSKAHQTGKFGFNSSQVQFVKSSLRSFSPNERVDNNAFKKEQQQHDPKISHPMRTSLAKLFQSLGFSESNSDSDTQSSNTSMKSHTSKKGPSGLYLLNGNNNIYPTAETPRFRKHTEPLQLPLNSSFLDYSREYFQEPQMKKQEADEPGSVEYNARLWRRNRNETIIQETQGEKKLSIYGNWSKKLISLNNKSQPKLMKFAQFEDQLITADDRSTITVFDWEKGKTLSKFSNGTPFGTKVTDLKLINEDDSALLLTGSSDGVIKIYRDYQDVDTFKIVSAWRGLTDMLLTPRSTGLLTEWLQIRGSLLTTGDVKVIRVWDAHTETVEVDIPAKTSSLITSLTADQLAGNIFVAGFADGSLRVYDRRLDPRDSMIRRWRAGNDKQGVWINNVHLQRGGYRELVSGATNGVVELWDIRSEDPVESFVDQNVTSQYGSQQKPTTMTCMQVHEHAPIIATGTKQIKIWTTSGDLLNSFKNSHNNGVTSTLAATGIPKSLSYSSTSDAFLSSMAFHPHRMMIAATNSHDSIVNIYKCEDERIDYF
T1 sequence (P41318 whole entry partner): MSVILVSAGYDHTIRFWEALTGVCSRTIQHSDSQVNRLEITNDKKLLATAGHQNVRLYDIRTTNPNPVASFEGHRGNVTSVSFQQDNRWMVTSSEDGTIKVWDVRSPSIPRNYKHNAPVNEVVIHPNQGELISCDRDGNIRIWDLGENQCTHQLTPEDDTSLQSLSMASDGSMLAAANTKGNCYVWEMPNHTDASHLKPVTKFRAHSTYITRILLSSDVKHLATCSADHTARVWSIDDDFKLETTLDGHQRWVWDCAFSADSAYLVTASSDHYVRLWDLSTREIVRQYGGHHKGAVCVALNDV
Description: The MST experiments were performed using a Monolith NT.115 (Nanotemper Technologies). Purification of TORC1 containing the N-terminally GFP-tagged Tor1 subunit was carried out as described previously. For the protein–protein interaction experiments, GFP–Tor1-containing TORC1 (7.5 nM) was mixed with a series of twofold dilutions (a total of 16 samples) of Acc1 (highest concentration, 80 nM) or Fas1 (highest concentration, 20 nM) purified from yeast through TAP-tag immuno-enrichment with rabbit IgG-coated magnetic beads and subsequent TEV cleavage in elution buffer (50 mM HEPES NaOH pH 7.5 and 150 mM NaCl) for 1 h at 18 °C. The samples were loaded into Monolith NT.115 capillaries and MST measurements were performed using 80% laser power and medium MST power setting at 30 °C. For the small molecule–protein interaction experiments, GFP–Tor1-containing TORC1 (7.5 nM) was mixed with a series of twofold dilutions (a total of 16 samples) of Mal-CoA (M4263, Sigma-Aldrich; highest concentration, 5 mM) dissolved in 50 mM HEPES pH 7.5. The samples were loaded into Monolith NT.115 capillaries and MST measurements were performed using 80% laser power and medium MST power setting at 30 °C. The experiments were performed in triplicate and data were fitted using the Kd model of the MO.Affinity Analysis software (Nanotemper Technologies). The signal-to-noise ratio represents the response amplitude divided by the noise of the measurement. The Kd value was obtained by plotting the bound fraction against the log-transformed ligand concentration.

Snf1 = tested on: T2, Snf1; assay: Yeast Snf1 kinase activity assay (IVK, Mig1 substrate); type: biochemical, Saccharomyces cerevisiae; design: key to In vitro kinase assay Snf1 / In vitro kinase assay Snf1, Mean: Mig1 phosphorylation signal density relative to 0 mM Mal-CoA (=1); settings: for In vitro kinase assay Snf1, Mean: 0 mM = 1; for In vitro kinase assay Snf1: Replicates 1-3, 0 mM = 1 (Ext. Fig. 10e)
T2 construct: The Snf1 complex was purified from a genomically C-terminally-tagged Snf1 yeast; TAP (C, cleaved yes); made in house; host or cells: S. cerevisiae strain Snf1-TAP (Open Biosystems)
Description: The Snf1 complex was purified from a genomically C-terminally-tagged Snf1 yeast cultured in YPD and washed with water before filtration to induce Snf1 activation. After filtration, the cells were frozen in liquid nitrogen and cryogenically disrupted using a Precellys homogenizer in lysis buffer (50 mM Tris–HCl pH 7.5, 150 mM NaCl, 0.1% NP-40, 10% glycerol, […] and Roche EDTA-free complete protease inhibitor). The cleared lysates were incubated with IgG-coupled Dynabeads (Dynabeads M-270 Epoxy; Invitrogen, Thermo Fisher Scientific) for 2 h at 4 °C. The beads were washed five times with lysis buffer and Snf1 was eluted through cleavage with TEV protease in elution buffer (50 mM Tris–HCl pH 7.5 and 0.5 mM EDTA) and stored at −80 °C after the addition of 10% glycerol. […] To test the effect of Mal-CoA (M4263, Sigma-Aldrich), the kinase reaction was pre-incubated with 2 μl of the compound from a 15× stock solution and threefold serial dilutions for 15 min. […] Proteins were separated by SDS–PAGE and stained with SYPRO Ruby (S4942, Sigma-Aldrich) to assess loading. Substrate phosphorylation was analysed by autoradiography using a Typhoon FLA 9500 phosphorimager (GE Healthcare) and the raw density of the signals was quantified using the gel analysis tool of ImageJ.

[1] = tested on: FASN, ACC1 and mTOR total protein levels; assay: FASN, ACC1 and mTOR total protein levels, immunoblot; type: cell-based, human
Description: For standard SDS–PAGE and immunoblotting experiments, cells from a well of a 12-well plate were lysed in 250 μl of ice-cold Triton lysis buffer (50 mM Tris pH 7.5, 1% Triton X-100, 150 mM NaCl, 50 mM NaF, 2 mM Na-vanadate and 0.011 g ml^−1 β-glycerophosphate) supplemented with 1×PhosSTOP phosphatase inhibitors (cat. no. 4906837001, Roche) and 1×cOmplete protease inhibitors (cat. no. 11836153001, Roche) for 10 min on ice. The samples were clarified by centrifugation (20,000g, 15 min, 4 °C) and the supernatants were boiled in 1×SDS sample buffer (5×SDS sample buffer: 350 mM Tris–HCl pH 6.8, 30% glycerol, 600 mM DTT, 12.8% SDS and 0.12% bromophenol blue). The band intensities were quantified using the ImageJ software.
Data in graphs are shown as the mean ± s.e.m. *P < 0.05, **P < 0.005, ***P < 0.0005. Source numerical data and unprocessed blots are provided. Source data

[2] = tested on: mTOR and FASN malonylation; assay: Malonylation of immunopurified mTOR and FASN (anti-Mal-K) from HEK293FT cells; type: cell-based, human
Description: Protein malonylation was assayed by immunoblotting using a Mal-K-specific antibody.

## CC(C)(COP(=O)(O)OP(=O)(O)OCC1OC(n2cnc3c(N)ncnc32)C(O)C1OP(=O)(O)O)C(O)C(=O)NCCC(=O)NCCSC(=O)CC(=O)O (stereo not shown) [Mal-CoA, malonyl-CoA]
TORC1; Mal-CoA 1.52588e-7 M
  Fraction bound transformed: -0.1669
  Mean Fnorm: 842.758 ‰
TORC1; Mal-CoA 1.52588e-7 M, Replicates 1-3 (ED Fig. 10a)
  Fnorm: 842.278 ‰ and 840.902 ‰ and 845.093 ‰
TORC1; Mal-CoA 3.05176e-7 M
  Fraction bound transformed: 0.1808
  Mean Fnorm: 838.674 ‰
TORC1; Mal-CoA 3.05176e-7 M, Replicates 1-2 (ED Fig. 10a)
  Fnorm: 836.322 ‰ and 841.026 ‰
TORC1; Mal-CoA 6.10352e-7 M
  Fraction bound transformed: -0.2372
  Mean Fnorm: 843.583 ‰
TORC1; Mal-CoA 6.10352e-7 M, Replicates 1-3 (ED Fig. 10a)
  Fnorm: 840.469 ‰ and 846.42 ‰ and 843.86 ‰
TORC1; Mal-CoA 1.2207e-6 M
  Fraction bound transformed: 0.2149
  Mean Fnorm: 838.273 ‰
TORC1; Mal-CoA 1.2207e-6 M, Replicates 1-3 (ED Fig. 10a)
  Fnorm: 837.823 ‰ and 838.78 ‰ and 838.217 ‰
TORC1; Mal-CoA 2.44141e-6 M
  Fraction bound transformed: 0.1801
  Mean Fnorm: 838.682 ‰
TORC1; Mal-CoA 2.44141e-6 M, Replicates 1-3 (ED Fig. 10a)
  Fnorm: 839.959 ‰ and 836.5 ‰ and 839.586 ‰
TORC1; Mal-CoA 4.88281e-6 M
  Fraction bound transformed: 0.2862
  Mean Fnorm: 837.436 ‰
TORC1; Mal-CoA 4.88281e-6 M, Replicates 1-3 (ED Fig. 10a)
  Fnorm: 839.798 ‰ and 836.387 ‰ and 836.122 ‰
TORC1; Mal-CoA 9.76563e-6 M
  Fraction bound transformed: 0.3923
  Mean Fnorm: 836.19 ‰
TORC1; Mal-CoA 9.76563e-6 M, Replicates 1-3 (ED Fig. 10a)
  Fnorm: 834.741 ‰ and 836.18 ‰ and 837.648 ‰
TORC1; Mal-CoA 1.95313e-5 M
  Fraction bound transformed: 0.495
  Mean Fnorm: 834.984 ‰
TORC1; Mal-CoA 1.95313e-5 M, Replicates 1-3 (ED Fig. 10a)
  Fnorm: 835.416 ‰ and 833.302 ‰ and 836.235 ‰
TORC1; Mal-CoA 3.90625e-5 M
  Fraction bound transformed: 0.697
  Mean Fnorm: 832.611 ‰
TORC1; Mal-CoA 3.90625e-5 M, Replicates 1-3 (ED Fig. 10a)
  Fnorm: 833.941 ‰ and 832.342 ‰ and 831.55 ‰
TORC1; Mal-CoA 7.8125e-5 M
  Fraction bound transformed: 0.721
  Mean Fnorm: 832.33 ‰
TORC1; Mal-CoA 7.8125e-5 M, Replicates 2-3 (ED Fig. 10a)
  Fnorm: 830.576 ‰ and 834.083 ‰
TORC1; Mal-CoA 0.00015625 M
  Fraction bound transformed: 0.6458
  Mean Fnorm: 833.212 ‰
TORC1; Mal-CoA 0.00015625 M, Replicates 1-3 (ED Fig. 10a)
  Fnorm: 833.177 ‰ and 832.509 ‰ and 833.951 ‰
TORC1; Mal-CoA 0.0003125 M
  Fraction bound transformed: 0.8154
  Mean Fnorm: 831.221 ‰
TORC1; Mal-CoA 0.0003125 M, Replicates 1-3 (ED Fig. 10a)
  Fnorm: 828.879 ‰ and 833.898 ‰ and 830.884 ‰
TORC1; Mal-CoA 0.00125 M
  Fraction bound transformed: 0.8761
  Mean Fnorm: 830.508 ‰
TORC1; Mal-CoA 0.00125 M, Replicates 1-3 (ED Fig. 10a)
  Fnorm: 830.373 ‰ and 829.245 ‰ and 831.906 ‰
TORC1; Mal-CoA 0.0025 M
  Fraction bound transformed: 1.1671
  Mean Fnorm: 827.09 ‰
TORC1; Mal-CoA 0.0025 M, Replicates 1-3 (ED Fig. 10a)
  Fnorm: 828.614 ‰ and 826.728 ‰ and 825.93 ‰
TORC1; Mal-CoA 0.005 M
  Fraction bound transformed: 1.112
  Mean Fnorm: 827.742 ‰
TORC1; Mal-CoA 0.005 M, Replicates 1-3 (ED Fig. 10a)
  Fnorm: 831.215 ‰ and 831.366 ‰ and 820.645 ‰
TORC1; Mal-CoA […]
  Fraction bound transformed: 1.135
  Mean Fnorm: 827.462 ‰
TORC1; purified yeast TORC1 (GFP–Tor1) 7.5 nM, 30 °C, mean ± s.d., n = 3, read-out: Kd (binding of Mal-CoA to TORC1, MST)
  Kd: 19.3 µM
Snf1; Mal-CoA 0.073 mM
  In vitro kinase assay Snf1, Mean: 1.243
  In vitro kinase assay Snf1: 0.8487 and 1.878 and 1.003
Snf1; Mal-CoA 0.22 mM
  In vitro kinase assay Snf1, Mean: 0.975
  In vitro kinase assay Snf1: 1.111 and 0.9316 and 0.8826
Snf1; Mal-CoA 2 mM
  In vitro kinase assay Snf1, Mean: 0.9179
  In vitro kinase assay Snf1: 1.023 and 1.058 and 0.6736
Snf1; Mal-CoA 6 mM
  In vitro kinase assay Snf1, Mean: 0.7128
  In vitro kinase assay Snf1: 0.7619 and 0.8143 and 0.5621
Snf1; Mal-CoA […]
  In vitro kinase assay Snf1, Mean: 0.967
Snf1; purified Snf1, His-tagged Mig1 substrate, IC50 not calculated
  inhibition of Snf1 in IVK assay: does not inhibit; also recorded: did not demonstrate substantial inhibitory effects

## C/C=C/C/C=C/CCC(=O)[C@H]1O[C@H]1C(N)=O [cerulenin]
[1]; 4 h cerulenin
  FASN, ACC1 and mTOR total protein levels: not affected
[1]; ED Fig. 3l, relative to DMSO
  FASN/Tubulin, Mean: 1.005
[1]; ED Fig. 3m, relative to DMSO
  ACC1/Tubulin, Mean: 1.011
[1]; ED Fig. 3n, relative to DMSO
  mTOR/Tubulin, Mean: 1.067
[2]; cerulenin-treated (50 μM, 4 h) vs control
  lysine malonylation of immunopurified human FASN: malonylation increasing further
[2]; control or cerulenin-treated (50 μM, 4 h)
  malonylation of immunopurified human mTOR: unable to detect malonylation
